Laboratory results published in patent US7591995B2, “Cobalamin conjugates useful as imaging and therapeutic agents” (Mayo Foundation for Medical Education and Research, priority 1999, dated 2009).

Experiments:
[1] = tested on: unsaturated B12 binding capacity (UBBC); details: relative to cyanocobalamin
[2] = tested on: unsaturated B12 binding capacity (UBBC); details: relative to cyanocobalamin; J. Nucl. Med. 38, 717-723 (1997), US 5,739,313; cited from earlier work
[3] = Specific activity of radiolabeled cobalamin DTPA conjugates; details: poly-DTPA complex, increased versus mono-DTPA compounds

Substance | in vitro biological activity (UBBC) when compared to cyanocobalamin [1] [%] | in vitro biological activity (UBBC), comparison to cyanocobalamin [2] [%] | specific activity [3] [mCi]
cyanocobalamin-poly-L-lysine | 92 | – | –
cyanocobalamin-DTPA | – | 66.4 | –
cyanocobalamin-poly-L-lysine-polyDTPA | 43.4 | – | 4.5
